Where a name gives a salt, the structure may show the parent alone. Read-outs that look alike come from different tables or passages of the source.
Assays:
[1] = test system: CD69 expression on CD19+ B cells in human whole blood; experiment: In Vitro whole blood CD69 Assay; type: cell-based; details: B-cell, read-out: In Vitro HWB CD69 Assay IC50 Score
Procedure, shortened: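 Heparinized healthy-donor human whole blood was preincubated with compound (0.1% DMSO) for 30 min at 37 °C. Stimulation used 0.1 µg/mL anti-IgD-dextran or 20 µg/mL rabbit F(ab′)2 anti-IgD for 18–22 h at 37 °C. CD69 on gated CD19+ B cells was then measured by flow cytometry.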

BTK = target: T1, BTK (Homo sapiens, UniProt Q06187); experiment: In Vitro BTK Kinase Assay: Btk-PolyGAT-LS Assay; type: biochemical; details: active BTK enzyme 0.25 nM, polyGAT 100 nM, 30 minutes, TRF readout; read-out: In Vitro BTK Kinase Assay IC50 Score
T1 construct: purchased Upstate 14-552
Procedure, shortened: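 Active BTK at 0.25 nM phosphorylated 100 nM fluorescein-polyGAT peptide at 10 μM ATP for 30 minutes. Buffer was Tris pH 7.5 with MgCl2, DTT, Triton X-100 and casein, and reactions were stopped with EDTA. Phospho-peptide was detected by Tb-PY20 antibody TR-FRET, and IC50 came from a four-parameter fit normalized to DMSO and EDTA controls.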

[2] = human heparinized whole blood, anti-human IgD stimulation overnight, CD19+ B cells, flow cytometry

T1 sequence (Q06187 whole entry): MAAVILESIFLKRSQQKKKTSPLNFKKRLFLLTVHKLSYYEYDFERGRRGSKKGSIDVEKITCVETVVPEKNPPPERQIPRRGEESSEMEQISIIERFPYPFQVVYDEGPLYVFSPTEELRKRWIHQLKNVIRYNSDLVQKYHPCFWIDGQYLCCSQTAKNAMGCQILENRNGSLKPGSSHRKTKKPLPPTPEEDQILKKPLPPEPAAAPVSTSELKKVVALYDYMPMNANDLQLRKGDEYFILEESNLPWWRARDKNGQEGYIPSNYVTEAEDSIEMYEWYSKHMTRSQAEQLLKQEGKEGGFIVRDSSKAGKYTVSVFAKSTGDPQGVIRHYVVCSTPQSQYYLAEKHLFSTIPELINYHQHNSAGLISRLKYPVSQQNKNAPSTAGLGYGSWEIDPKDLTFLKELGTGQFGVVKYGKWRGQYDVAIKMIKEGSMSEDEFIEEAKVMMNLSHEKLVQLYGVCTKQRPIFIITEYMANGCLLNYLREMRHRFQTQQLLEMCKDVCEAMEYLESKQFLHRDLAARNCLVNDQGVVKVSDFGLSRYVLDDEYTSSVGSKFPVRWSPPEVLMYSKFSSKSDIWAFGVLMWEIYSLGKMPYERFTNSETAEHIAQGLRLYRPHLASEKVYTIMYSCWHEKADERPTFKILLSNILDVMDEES

`Cn1cc(-c2cn3nccc3c(N3CC[C@H](CNC(=O)c4noc(C(C)(C)C)n4)[C@H](F)C3)n2)cn1` (single isomer, unassigned) [Example 155] gave an IC50 [1, 2] of 1000 to 10000 nM and an IC50 (BTK) of 1 to 10 nM.

`Cn1cc(-c2cn3nccc3c(-c3cc(F)c(CNC(=O)c4nnn(C(C)(C)C)n4)cc3F)n2)cn1` [Example 99, 2-(tert-butyl)-N-(2,5-difluoro-4-(6-(1-methyl-1H-pyrazol-4-yl)pyrazolo[1,5-a]pyrazin-4-yl)benzyl)-2H-tetrazole-5-carboxamide] gave an IC50 [1, 2] of under 1000 nM and an IC50 (BTK) of under 1 nM.

For `Cn1cc(-c2cn3nccc3c(-c3ccc(CNC(=O)c4nnn(C(C)(C)C)n4)c(F)c3)n2)cn1` [Example 7, 2-(tert-butyl)-N-(2-fluoro-4-(6-(1-methyl-1H-pyrazol-4-yl)pyrazolo[1,5-a]pyrazin-4-yl)benzyl)-2H-tetrazole-5-carboxamide], the IC50 [1, 2] was under 1000 nM and the IC50 (BTK) was under 1 nM.

`Cn1cc(-c2cn3nccc3c(-c3ccc(CNC(=O)c4cn(C(C)(C)C)nn4)cc3)n2)cn1` [Example 4, 1-(tert-butyl)-N-(4-(6-(1-methyl-1H-pyrazol-4-yl)pyrazolo[1,5-a]pyrazin-4-yl)benzyl)-1H-1,2,3-triazole-4-carboxamide] was tested, and the IC50 [1, 2] was under 1000 nM and the IC50 (BTK) was under 1 nM.

`Cn1cc(-c2cn3nccc3c(N3CCC(F)(CNC(=O)c4noc(C5(C)CC5)n4)CC3)n2)cn1` [Example 161, N-((4-fluoro-1-(6-(1-methyl-1H-pyrazol-4-yl)pyrazolo[1,5-a]pyrazin-4-yl)piperidin-4-yl)methyl)-5-(1-methylcyclopropyl)-1,2,4-oxadiazole-3-carboxamide trifluoroacetate] gave an IC50 [1, 2] of 1000 to 10000 nM and an IC50 (BTK) of 1 to 10 nM.

`Cn1cc(-c2cn3nccc3c(-c3ccc4c(c3)CN(C3COC3)CC[C@H]4NC(=O)c3cn(C(C)(C)C)nn3)n2)cn1` [Example 39, 1-tert-butyl-N-[(5R)-8-[6-(1-methylpyrazol-4-yl)pyrazolo[1,5-a]pyrazin-4-yl]-2-(oxetan-3-yl)-1,3,4,5-tetrahydro-2-benzazepin-5-yl]triazole-4-carboxamide] gave an IC50 [1, 2] of under 1000 nM and an IC50 (BTK) of under 1 nM.

With `Cc1cc(-c2nc(-c3cnn(C)c3)cn3nccc23)ccc1CNC(=O)c1cn(C(C)(C)C)nn1` [Example 16, 1-(tert-butyl)-N-(2-methyl-4-(6-(1-methyl-1H-pyrazol-4-yl)pyrazolo[1,5-a]pyrazin-4-yl)benzyl)-1H-1,2,3-triazole-4-carboxamide] the IC50 [1, 2] was under 1000 nM and the IC50 (BTK) was under 1 nM.

`Cn1cc(-c2cn3nccc3c(-c3ccc(CNC(=O)c4noc(C(C)(C)C)n4)cc3F)n2)cn1` [Example 83, 5-(tert-butyl)-N-(3-fluoro-4-(6-(1-methyl-1H-pyrazol-4-yl)pyrazolo[1,5-a]pyrazin-4-yl)benzyl)-1,2,4-oxadiazole-3-carboxamide] gave an IC50 [1, 2] of under 1000 nM and an IC50 (BTK) of 1 to 10 nM.

Compound `Cn1cc(-c2cn3nccc3c(-c3ccc(CNC(=O)c4cn(C(C)(C)C)nn4)cc3F)n2)cn1` [Example 112, 1-(tert-butyl)-N-(3-fluoro-4-(6-(1-methyl-1H-pyrazol-4-yl)pyrazolo[1,5-a]pyrazin-4-yl)benzyl)-1H-1,2,3-triazole-4-carboxamide] has an IC50 [1, 2] of 1000 to 10000 nM and an IC50 (BTK) of 1 to 10 nM.

`Cn1cc(-c2cn3nccc3c(-c3ccc(CNC(=O)c4cnn(C(C)(C)C)c4)c(F)c3)n2)cn1` [Example 10, 1-(tert-butyl)-N-(2-fluoro-4-(6-(1-methyl-1H-pyrazol-4-yl)pyrazolo[1,5-a]pyrazin-4-yl)benzyl)-1H-pyrazole-4-carboxamide] gave an IC50 [1, 2] of under 1000 nM and an IC50 (BTK) of under 1 nM.

Compound `Cn1cc(-c2cn3nccc3c(-c3ccc(CNC(=O)c4noc(C5(C)CC5)n4)cc3)n2)cn1` [Example 5, N-(4-(6-(1-methyl-1H-pyrazol-4-yl)pyrazolo[1,5-a]pyrazin-4-yl)benzyl)-5-(1-methylcyclopropyl)-1,2,4-oxadiazole-3-carboxamide] has an IC50 [1, 2] of under 1000 nM and an IC50 (BTK) of under 1 nM.

Work on `Cn1cc(-c2cn3ncnc3c(N3CCC(CNC(=O)c4nnn(C(C)(C)C)n4)CC3)n2)cn1` [Example 72, 2-(tert-butyl)-N-((1-(6-(1-methyl-1H-pyrazol-4-yl)-[1,2,4]triazolo[1,5-a]pyrazin-8-yl)piperidin-4-yl)methyl)-2H-tetrazole-5-carboxamide] yielded an IC50 [1, 2] of 1000 to 10000 nM and an IC50 (BTK) of 1 to 10 nM.

Work on `Cn1cc(-c2cn3nccc3c(N3CCC(CNC(=O)c4cn(C(C)(C)C)nn4)CC3)n2)cn1` [Example 138, 1-(tert-butyl)-N-((1-(6-(1-methyl-1H-pyrazol-4-yl)pyrazolo[1,5-a]pyrazin-4-yl)piperidin-4-yl)methyl)-1H-1,2,3-triazole-4-carboxamide] yielded an IC50 [1, 2] of 1000 to 10000 nM and an IC50 (BTK) of 1 to 10 nM.

Work on `Cc1cc(-c2nc(-c3cnn(C)c3)cn3nccc23)ccc1CNC(=O)c1ccn(C(C)(C)C)n1` [Example 18, 1-(tert-butyl)-N-(2-methyl-4-(6-(1-methyl-1H-pyrazol-4-yl)pyrazolo[1,5-a]pyrazin-4-yl)benzyl)-1H-pyrazole-3-carboxamide] yielded an IC50 [1, 2] of under 1000 nM and an IC50 (BTK) of 1 to 10 nM.

Work on `Cc1cc(-c2nc(N3CCN(C)CC3)cn3nccc23)ccc1CNC(=O)c1cn(C(C)(C)C)nn1` [Example 121, 1-(tert-butyl)-N-(2-methyl-4-(6-(4-methylpiperazin-1-yl)pyrazolo[1,5-a]pyrazin-4-yl)benzyl)-1H-1,2,3-triazole-4-carboxamide trifluoroacetate] yielded an IC50 [1, 2] of 1000 to 10000 nM and an IC50 (BTK) of 10 to 1000 nM.

Compound `CC1CN(c2nc(-c3cnn(C)c3)cn3nccc23)CCC1CNC(=O)c1noc(C2(C)CC2)n1` (stereo not shown) [Example 149, N-((3-methyl-1-(6-(1-methyl-1H-pyrazol-4-yl)pyrazolo[1,5-a]pyrazin-4-yl)piperidin-4-yl)methyl)-5-(1-methylcyclopropyl)-1,2,4-oxadiazole-3-carboxamide] has an IC50 [1, 2] of 1000 to 10000 nM and an IC50 (BTK) of 1 to 10 nM.

Compound `C[C@@H]1CN(c2nc(-c3cnn(C)c3)cn3nccc23)CC[C@@H]1CNC(=O)c1noc(C2(C)CC2)n1` (single isomer, unassigned) [Example 146] has an IC50 [1, 2] of 1000 to 10000 nM and an IC50 (BTK) of 1 to 10 nM.

In the case of `CC(C)CN1CCN(Cc2ccc(-c3nc(-c4cnn(C)c4)cn4nccc34)cc2F)C(=O)C1` [Example 34, 1-(2-fluoro-4-(6-(1-methyl-1H-pyrazol-4-yl)pyrazolo[1,5-a]pyrazin-4-yl)benzyl)-4-isobutylpiperazin-2-one], the IC50 [1, 2] is reported as 1000 to 10000 nM and the IC50 (BTK) is reported as 1 to 10 nM.

Compound `Cn1cc(-c2cn3nccc3c(-c3ccc(CNC(=O)c4cnn(C(C)(C)C)n4)c(C(F)F)c3)n2)cn1` [Example 104, 2-(tert-butyl)-N-(2-(difluoromethyl)-4-(6-(1-methyl-1H-pyrazol-4-yl)pyrazolo[1,5-a]pyrazin-4-yl)benzyl)-2H-1,2,3-triazole-4-carboxamide] has an IC50 [1, 2] of 1000 to 10000 nM and an IC50 (BTK) of under 1 nM.

With `Cn1cc(-c2cn3nccc3c(-c3ccc(CNC(=O)c4cn(C(C)(C)C)nn4)c(F)c3)n2)cn1` [Example 9, 1-(tert-butyl)-N-(2-fluoro-4-(6-(1-methyl-1H-pyrazol-4-yl)pyrazolo[1,5-a]pyrazin-4-yl)benzyl)-1H-1,2,3-triazole-4-carboxamide] the IC50 [1, 2] was under 1000 nM and the IC50 (BTK) was under 1 nM.

For `Cc1cc(-c2nc(N3CCN(C)CC3)cn3nccc23)ccc1CNC(=O)c1nnn(C(C)(C)C)n1` [Example 130], the IC50 [1, 2] was 1000 to 10000 nM and the IC50 (BTK) was 1 to 10 nM.

Compound `Cn1cc(-c2cc3nccn3c(-c3ccc(CNC(=O)c4nnn(C(C)(C)C)n4)cc3)n2)cn1` [Example 58, 2-(tert-butyl)-N-(4-(7-(1-methyl-1H-pyrazol-4-yl)imidazo[1,2-c]pyrimidin-5-yl)benzyl)-2H-tetrazole-5-carboxamide] has an IC50 [1, 2] of under 1000 nM and an IC50 (BTK) of under 1 nM.

`Cn1cc(-c2cn3nccc3c(N3CCC(CNC(=O)c4noc(C(C)(C)C)n4)CC3)n2)cn1` [Example 136, 5-(tert-butyl)-N-((1-(6-(1-methyl-1H-pyrazol-4-yl)pyrazolo[1,5-a]pyrazin-4-yl)piperidin-4-yl)methyl)-1,2,4-oxadiazole-3-carboxamide] showed an IC50 ([1]; Homo sapiens) of under 1000 nM and an IC50 (BTK) of 1 to 10 nM.

Compound `C[C@@H]1C[C@@H](CNC(=O)c2cn(C(C)(C)C)nn2)CCN1c1nc(-c2cnn(C)c2)cn2nccc12` (single isomer, unassigned) [Example 143] has an IC50 [1, 2] of 1000 to 10000 nM and an IC50 (BTK) of 1 to 10 nM.

Work on `C[C@H]1CN(c2nc(-c3cnn(C)c3)cn3nccc23)CC[C@@H]1CNC(=O)c1noc(C2(C)CC2)n1` (single isomer, unassigned) [Example 148] yielded an IC50 [1, 2] of 1000 to 10000 nM and an IC50 (BTK) of 1 to 10 nM.

In the case of `Cn1cc(-c2cn3nccc3c(-c3ccc(CNC(=O)c4coc(C(C)(C)C)n4)cc3F)n2)cn1` [Example 109], the IC50 [1, 2] is reported as 1000 to 10000 nM and the IC50 (BTK) is reported as 1 to 10 nM.

With `Cn1cc(-c2cc3nccn3c(-c3ccc(CNC(=O)c4cnn(C(C)(C)C)c4)cc3)n2)cn1` [Example 57, 1-(tert-butyl)-N-(4-(7-(1-methyl-1H-pyrazol-4-yl)imidazo[1,2-c]pyrimidin-5-yl)benzyl)-1H-pyrazole-4-carboxamide] the IC50 [1, 2] was 1000 to 10000 nM and the IC50 (BTK) was 1 to 10 nM.

With `COCCOc1cn2nccc2c(-c2ccc(CNC(=O)c3noc(C(C)(C)C)n3)c(C)c2)n1` [Example 132, 5-(tert-butyl)-N-(4-(6-(2-methoxyethoxy)pyrazolo[1,5-a]pyrazin-4-yl)-2-methylbenzyl)-1,2,4-oxadiazole-3-carboxamide] the IC50 [1, 2] was 1000 to 10000 nM and the IC50 (BTK) was 1 to 10 nM.

With `Cc1cc(-c2nc(-c3cnn(C)c3)cn3nccc23)ccc1CNC(=O)c1noc(C(C)(C)C)n1` [Example 80, 5-(tert-butyl)-N-(2-methyl-4-(6-(1-methyl-1H-pyrazol-4-yl)pyrazolo[1,5-a]pyrazin-4-yl)benzyl)-1,2,4-oxadiazole-3-carboxamide] the IC50 [1, 2] was under 1000 nM and the IC50 (BTK) was under 1 nM.

From patent US20250034150A1, “BTK INHIBITORS” (BIOGEN MA INC., priority 2021, published 2025)
